According to ChEMBL document CHEMBL1201862, “PubChem BioAssay data set” (2004):
The source made the active and inactive calls.

Legend:
[1] = target: T1, Rac GTPase-activating protein 1 (Homo sapiens, UniProt Q9H0H5); test: MgcRacGAP GTPase-activating activity inhibitors, confirmation, biochemical, ADP Hunter fluorescence, primary and confirmatory (AID 624330); type: functional
T1 sequence (Q9H0H5 whole entry): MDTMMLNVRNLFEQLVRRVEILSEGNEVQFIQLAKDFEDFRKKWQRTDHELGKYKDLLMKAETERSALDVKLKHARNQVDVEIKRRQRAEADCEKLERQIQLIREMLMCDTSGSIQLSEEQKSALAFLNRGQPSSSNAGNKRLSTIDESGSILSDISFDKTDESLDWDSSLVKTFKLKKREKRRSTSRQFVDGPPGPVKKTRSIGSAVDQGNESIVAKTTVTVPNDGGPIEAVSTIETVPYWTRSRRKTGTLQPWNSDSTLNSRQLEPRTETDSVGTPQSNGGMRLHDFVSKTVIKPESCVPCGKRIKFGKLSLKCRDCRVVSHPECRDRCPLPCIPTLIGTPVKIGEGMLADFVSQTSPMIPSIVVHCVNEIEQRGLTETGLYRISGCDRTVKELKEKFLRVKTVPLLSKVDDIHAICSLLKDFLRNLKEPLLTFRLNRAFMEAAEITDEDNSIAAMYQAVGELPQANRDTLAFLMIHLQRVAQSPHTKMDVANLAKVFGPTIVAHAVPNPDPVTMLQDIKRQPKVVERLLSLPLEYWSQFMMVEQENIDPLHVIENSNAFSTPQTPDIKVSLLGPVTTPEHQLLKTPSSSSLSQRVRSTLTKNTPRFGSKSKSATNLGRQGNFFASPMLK

H4 = test: Luminescence Cell-Based Dose Response HTS to Identify Activators of 5'UTR Stem-Loop Driven Prion Protein mRNA Translation in H4 Neuroglioblastoma Cells. [Related pubchem assays: 1829 (Project Summary), 1814 (Primary HTS)]; type: functional; conditions: Homo sapiens
[2] = Luminescence Cell-Based Dose Response HTS to Identify Activators of Luciferase Translation or Activity in H4 […] Cells. [Related pubchem assays: 1829 (Project Summary), 1814 (Primary HTS)]; type: functional
[3] = Luminescence Cell-Based Dose Confirmation to Identify Activators of 5'UTR Stem-Loop Driven Alpha-Synuclein mRNA Translation in H4 Neuroglioblastoma Cells. [Related pubchem assays: 1829 (Project Summary), 1814 (Primary HTS)]; type: functional
[4] = Luminescence Cell-Based Dose Response to Identify Activators of 5'UTR Stem-Loop Driven Prion Protein mRNA Translation in H4-C Neuroglioblastoma Cells. [Related pubchem assays: 1829 (Project Summary), 1814 (Primary HTS)]; type: functional
[5] = Luminescence Cell-Based Dose Response to Identify Activators of Luciferase Translation or Activity in H4-C Neuroglioblastoma Cells. [Related pubchem assays: 1829 (Project Summary), 1814 (Primary HTS)]; type: functional
[6] = target: T2, Oxysterols receptor LXR-beta (Homo sapiens, UniProt P55055); type: functional, cell-based;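 further: agonist activity at LXR measured by a cell-based luminescence readout across a dose range, run as a counterscreen for daf-12 agonists; HEK293 cells with Gal4-LXR fusion and GAL4-driven luciferase reporter; potency for activation of Gal4-LXR reporter so compounds are agonists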
T2 sequence (P55055 whole entry): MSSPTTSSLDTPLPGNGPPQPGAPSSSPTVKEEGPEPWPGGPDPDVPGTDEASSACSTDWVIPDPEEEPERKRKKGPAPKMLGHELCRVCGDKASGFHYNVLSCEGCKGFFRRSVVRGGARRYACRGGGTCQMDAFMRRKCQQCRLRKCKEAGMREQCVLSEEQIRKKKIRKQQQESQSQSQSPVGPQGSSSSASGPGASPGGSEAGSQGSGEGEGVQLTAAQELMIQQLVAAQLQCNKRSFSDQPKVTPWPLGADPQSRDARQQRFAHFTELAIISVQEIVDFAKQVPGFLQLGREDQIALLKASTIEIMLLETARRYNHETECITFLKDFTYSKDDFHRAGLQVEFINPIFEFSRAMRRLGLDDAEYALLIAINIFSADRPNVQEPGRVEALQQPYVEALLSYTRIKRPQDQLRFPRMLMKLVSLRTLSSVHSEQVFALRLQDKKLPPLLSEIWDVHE

[7] = ADAM10 inhibitors, peptide cleavage, dose response, biochemical, QFRET (AID 743254);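 further: ADAM10 enzyme with the DM2 quenched FRET peptide as substrate; EDANS fluorescence gain as the protease cuts the substrate; inhibitor potency against ADAM10 proteolytic activity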
[8] = target: Disintegrin and metalloproteinase domain-containing protein 17 (Homo sapiens, UniProt P78536); test: ADAM17 protease inhibitors, dose response, counter-screen for ADAM10 exosite inhibitor project, biochemical, quenched FRET substrate (AID 743253)
[9] = inhibitors of clade B AD8 Env fusion, dose response, cell-based, cherry-pick (AID 652062); type: functional;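 further: luciferase signal from cell-cell fusion driven by HIV-1 clade B AD8 Env; potency is for inhibitors of fusion seen as a drop in luminescence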
[10] = A cytotoxicity screen of small molecule inhibitors of the PhoP region in Salmonella typhi identified in the primary screen. [Related pubchem assays: 1850, 1864, 1985 ]; type: functional
[11] = control 3'UTR Renilla luciferase suppression, dose response, counter-screen for Shn3 inhibitor project, cell-based, Clone20-Shn3RL, cherry-picked (AID 624133); type: functional
Protein Wnt-3a = Protein Wnt-3a (Mus musculus, UniProt P27467); test: Wnt3a-driven reporter signaling inhibition, dose response, selectivity assay for Gli-SUFU antagonist project, Wnt-LIGHT cells, luminescence (AID 651570); type: functional; conditions: read-out: IC50_Mean;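 further: Wnt-LIGHT reporter cells stimulated with conditioned medium from Wnt3a-producing cells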
[12] = reduction of Shn3 3'UTR firefly luciferase signal, dose response, Schnurri-3 inhibitor project, cell-based, Clone20 osteoblasts, cherry-pick, set 2 (AID 720490); type: functional;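 further: actives lower the luminescence signal as inhibitors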
[13] = CEM21 lymphoblast cell cytotoxicity, dose response, cytotoxicity control for viral fusion inhibitor project, CellTiter-Glo luminescence, cherry-picked (AID 652042); type: functional, cell-based;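 further: potency for signal decrease meaning cytotoxicity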
[14] = Shn3 3'UTR reporter inhibitors, dose response, cell-based, Clone20 osteoblasts, firefly luciferase, cherry-picked (AID 624132); type: functional;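 further: firefly luciferase luminescence from reporter carrying the Shn3 3'UTR in osteoblasts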
[15] = ZM109 Env clade C HIV-1 fusion inhibitors, dose response, HeLa effector, CEM target cells, luciferase, cherry-pick (AID 652058); type: functional, cell-based
[16] = inhibitors of HIV Env-driven cell fusion, dose response, cherry-pick (AID 652057); type: functional, cell-based
[17] = HepG2 cell cytotoxicity, dose response, cytotoxicity control for Shn3 inhibitor project, CellTiter-Glo, cherry-picked (AID 624134); type: functional, cell-based
INS1 = test: beta cell apoptosis inhibitors, cytokine rescue, dose response, luminescence, retest (AID 449756); type: functional, cell-based; conditions: Rattus norvegicus;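 further: cell death triggered by IL-1 beta plus TNF-alpha plus IFN-gamma mixture; protective hits raise ATP signal compared with cytokine alone wells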
[18] = Late stage counterscreen for inhibitors of Trypanosoma brucei methionyl tRNA synthetase (MetRS): Luminescence-based cell-based high throughput dose response assay to identify compounds that are cytotoxic to Jurkat human T lymphocyte cells.; type: functional

Sequence of Disintegrin and metalloproteinase domain-containing protein 17 (P78536 whole entry, the tested form may be a part): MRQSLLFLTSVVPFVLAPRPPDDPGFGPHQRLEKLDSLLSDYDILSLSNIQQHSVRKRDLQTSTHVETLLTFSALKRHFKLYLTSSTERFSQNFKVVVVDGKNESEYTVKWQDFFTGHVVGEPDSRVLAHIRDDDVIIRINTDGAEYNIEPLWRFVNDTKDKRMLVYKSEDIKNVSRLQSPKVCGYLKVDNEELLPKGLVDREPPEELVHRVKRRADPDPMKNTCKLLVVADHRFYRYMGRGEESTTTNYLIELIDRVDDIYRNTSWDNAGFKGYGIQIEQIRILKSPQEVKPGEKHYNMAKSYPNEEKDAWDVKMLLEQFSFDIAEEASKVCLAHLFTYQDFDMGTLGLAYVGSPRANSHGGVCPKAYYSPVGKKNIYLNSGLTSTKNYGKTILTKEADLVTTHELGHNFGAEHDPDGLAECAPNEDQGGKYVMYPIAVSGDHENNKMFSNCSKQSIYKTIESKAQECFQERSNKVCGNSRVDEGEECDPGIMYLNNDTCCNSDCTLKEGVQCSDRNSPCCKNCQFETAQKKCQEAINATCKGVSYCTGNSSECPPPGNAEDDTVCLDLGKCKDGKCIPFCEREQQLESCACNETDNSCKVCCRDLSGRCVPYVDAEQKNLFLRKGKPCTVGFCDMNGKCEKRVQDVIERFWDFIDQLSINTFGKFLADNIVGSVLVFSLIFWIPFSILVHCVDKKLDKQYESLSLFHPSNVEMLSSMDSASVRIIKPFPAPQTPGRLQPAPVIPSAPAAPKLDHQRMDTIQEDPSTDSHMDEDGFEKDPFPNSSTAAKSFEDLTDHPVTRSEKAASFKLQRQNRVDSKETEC
Sequence of Protein Wnt-3a (P27467 whole entry): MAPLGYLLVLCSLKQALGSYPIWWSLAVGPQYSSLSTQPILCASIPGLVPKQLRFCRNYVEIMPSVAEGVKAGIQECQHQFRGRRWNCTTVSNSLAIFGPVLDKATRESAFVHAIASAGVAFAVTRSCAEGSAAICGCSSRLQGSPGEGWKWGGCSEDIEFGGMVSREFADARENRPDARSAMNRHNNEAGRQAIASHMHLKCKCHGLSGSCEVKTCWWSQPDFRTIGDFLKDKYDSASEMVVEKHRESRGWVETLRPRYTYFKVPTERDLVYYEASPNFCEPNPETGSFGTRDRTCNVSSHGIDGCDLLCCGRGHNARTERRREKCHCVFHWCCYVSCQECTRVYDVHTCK

CN1C(=O)/C(=C/C=C2\SCCN2C)N(C)C1=S
IC50 [1]: 20 µM (active) | EC50 (H4): > 120 µM (inconclusive) | EC50 [2]: < 0.1 µM (active) | EC50 [3]: 0.766 µM (active) | EC50 [4]: 0.383 µM (active) | EC50 [5]: 0.41 µM (active) | EC50 [6]: > 67.6 µM (inactive)

C=CCN(c1ccccc1OC)S(=O)(=O)c1cccc(C(=O)OCC(=O)c2c[nH]c3ccccc23)c1
IC50 [7]: > 69.5 µM (inactive) | IC50 [8]: > 69.5 µM (inactive)

CCN(CC)c1ccc(NC(=O)COC(=O)CSc2ccc(Br)cc2C)cc1
IC50 [7]: > 7.72 µM (active) | IC50 [8]: > 69.5 µM (inactive)

CCCCOCCCNc1[nH]cnc2c3ccccc3nc1-2
AC50 [9]: 5.02 µM (active) | EC50 [10]: > 50 µM (active) | AC50 [11]: 10.9 µM (active) | IC50 (Protein Wnt-3a): 0.843 µM (active) | AC50 [12]: 1.48 µM (active) | AC50 [13]: 46.3 µM (active) | AC50 [14]: 1.05 µM (active) | AC50 [15]: 14.8 µM (active) | AC50 [16]: 33.8 µM (active) | AC50 [17]: 22.9 µM (active) | AC50 (INS1): 1.78 µM (active)

O=C(NCc1nc2ccccc2[nH]1)C1=C[C@H](c2ccc(Br)cc2)C[C@H](OCc2ccc(CO)cc2)O1
IC50 [18]: 81.3 µM (inactive)
